Values of other authors as cited in PMC9729070 (Bioorganic & medicinal chemistry letters, 2022).

What was measured:
[1] = Phase I clinical trials
[2] = CRPC patients

Row | Compound | bioavailability [1] | survival time prolongation [2]
1 | O=C(Nc1ccc([N+](=O)[O-])cc1Cl)c1cc(Cl)ccc1O [Niclosamide (1), Niclosamide] | unacceptable bioavailability | 
2 | CNC(=O)c1ccc(N2C(=S)N(c3ccc(C#N)c(C(F)(F)F)c3)C(=O)C2(C)C)cc1F [enzalutamide (Xtandi), enzalutamide] |  | five
